Several values for one entry are separate records, joined by “and”; a condition that tells them apart may be missing. Equal entries are not always repeated. Toxic doses and inconclusive results are not listed.
Tested on: B6C3F1 mice, ip Sarcoma M5076, median survival T/C
Test: NCI In Vivo Anticancer Drug Screen. Data for tumor model Sarcoma M5076 (intraperitoneal) in B6C3F1 mice
Conditions: endpoint: median survival time, higher = longer survival
How it was run: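 Survival measured in treated (T) and vehicle control (C) mice with transplantable tumour; result given as T divided by C.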

[1] = dose: 100.0 mg/kg/injection, schedule: Q04DX004 (ip), vehicle: saline with Tween-80
[2] = dose: 200.0 mg/kg/injection, schedule: Q04DX004 (ip), vehicle: saline with Tween-80
[3] = dose: 400.0 mg/kg/injection, schedule: Q04DX004 (ip), vehicle: saline with Tween-80
[4] = dose: 50.0 mg/kg/injection, schedule: Q04DX004 (ip), vehicle: saline with Tween-80
[5] = dose: 50.0 mg/kg/injection, schedule: Q04DX004 (ip), vehicle: suspension in saline
[6] = dose: 6.25 mg/kg/injection, schedule: Q04DX004 (ip), vehicle: saline with Tween-80
[7] = dose: 12.5 mg/kg/injection, schedule: Q04DX004 (ip), vehicle: saline with Tween-80
[8] = dose: 12.5 mg/kg/injection, schedule: Q04DX004 (ip), vehicle: saline
[9] = dose: 25.0 mg/kg/injection, schedule: Q04DX004 (ip), vehicle: saline
[10] = dose: 50.0 mg/kg/injection, schedule: Q04DX004 (ip), vehicle: saline
[11] = dose: 75.0 mg/kg/injection, schedule: Q04DX004 (ip), vehicle: saline
[12] = dose: 150.0 mg/kg/injection, schedule: Q04DX004 (ip), vehicle: saline

## CCOC(=O)C1=C(C)O/C(=C/c2cccc(Cl)c2)C1=O
[1]
  T/C: 99 % of control
[2]
  T/C: 100 % of control
[3]
  T/C: 93 % of control

## NC(=O)c1[nH]cnc1O
[4]
  T/C: 102 % of control
[1]
  T/C: 101 % of control and 105 % of control
[2]
  T/C: 100 % of control and 105 % of control
[3]
  T/C: 118 % of control

## NC(=O)C(N)C(F)c1ccccc1 (stereo unspecified)
dose: 31.25 mg/kg/injection, schedule: Q04DX004 (ip), vehicle: saline with Tween-80
  T/C: 100 % of control
dose: 62.5 mg/kg/injection, schedule: Q04DX004 (ip), vehicle: saline with Tween-80
  T/C: 116 % of control
dose: 125.0 mg/kg/injection, schedule: Q04DX004 (ip), vehicle: saline with Tween-80
  T/C: 93 % of control
dose: 250.0 mg/kg/injection, schedule: Q04DX004 (ip), vehicle: saline with Tween-80
  T/C: 96 % of control

## Nc1nc2n[nH]nc2c(=O)[nH]1
[5]
  T/C: 118 % of control
dose: 200.0 mg/kg/injection, schedule: Q04DX004 (ip), vehicle: suspension in saline
  T/C: 123 % of control

## C=COC(=O)C(Cc1ccccc1)NC(=O)OCc1ccccc1 (stereo unspecified)
dose: 75.0 mg/kg/injection, schedule: Q04DX004 (ip), vehicle: saline with Tween-80
  T/C: 91 % of control
dose: 150.0 mg/kg/injection, schedule: Q04DX004 (ip), vehicle: saline with Tween-80
  T/C: 111 % of control
dose: 300.0 mg/kg/injection, schedule: Q04DX004 (ip), vehicle: saline with Tween-80
  T/C: 113 % of control
dose: 600.0 mg/kg/injection, schedule: Q04DX004 (ip), vehicle: saline with Tween-80
  T/C: 91 % of control
dose: 1200.0 mg/kg/injection, schedule: Q04DX004 (ip), vehicle: saline with Tween-80
  T/C: 88 % of control

## Nc1nc([Se]c2nc(N)nc3c2ncn3C2OC(CO)C(O)C2O)c2ncn(C3OC(CO)C(O)C3O)c2n1 (stereo unspecified)
dose: 25.0 mg/kg/injection, schedule: Q04DX004 (ip), vehicle: distilled water + Tween-80
  T/C: 123 % of control
dose: 100.0 mg/kg/injection, schedule: Q04DX004 (ip), vehicle: distilled water + Tween-80
  T/C: 159 % of control
dose: 200.0 mg/kg/injection, schedule: Q04DX004 (ip), vehicle: distilled water + Tween-80
  T/C: 157 % of control and 177 % of control

## C=CC(=O)NCNC(=O)C=C
[5]
  T/C: 99 % of control
dose: 100.0 mg/kg/injection, schedule: Q04DX004 (ip), vehicle: suspension in saline
  T/C: 115 % of control

## O=C1C(=O)C(CN2CCOCC2)=C(N2CCOCC2)C(N2CCOCC2)=C1CN1CCOCC1
dose: 25.0 mg/kg/injection, schedule: Q04DX004 (ip), vehicle: saline with Tween-80
  T/C: 96 % of control
[4]
  T/C: 101 % of control
[1]
  T/C: 94 % of control
[2]
  T/C: 88 % of control
[3]
  T/C: 92 % of control

## c1ccc2[nH]c(CN(CCN(Cc3nc4ccccc4[nH]3)Cc3nc4ccccc4[nH]3)Cc3nc4ccccc4[nH]3)nc2c1
dose: 3.12 mg/kg/injection, schedule: Q04DX004 (ip), vehicle: other
  T/C: 103 % of control
dose: 6.25 mg/kg/injection, schedule: Q04DX004 (ip), vehicle: other
  T/C: 108 % of control
dose: 12.5 mg/kg/injection, schedule: Q04DX004 (ip), vehicle: other
  T/C: 100 % of control

## CC1(C)N=C(N)N=C(N)N1c1ccc(CCCCc2ccc(S(=O)(=O)F)cc2Cl)c(Cl)c1
dose: 15.0 mg/kg/injection, schedule: Q04DX004 (ip), vehicle: Klucel (hydroxypropylcellulose) (HPC)
  T/C: 204 % of control
dose: 30.0 mg/kg/injection, schedule: Q04DX004 (ip), vehicle: Klucel (hydroxypropylcellulose) (HPC)
  T/C: 186 % of control
dose: 60.0 mg/kg/injection, schedule: Q04DX004 (ip), vehicle: Klucel (hydroxypropylcellulose) (HPC)
  T/C: 270 % of control
dose: 120.0 mg/kg/injection, schedule: Q04DX004 (ip), vehicle: Klucel (hydroxypropylcellulose) (HPC)
  T/C: 270 % of control
dose: 240.0 mg/kg/injection, schedule: Q04DX004 (ip), vehicle: Klucel (hydroxypropylcellulose) (HPC)
  T/C: 270 % of control

## Cc1ccoc1
dose: 16.8 mg/kg/injection, schedule: Q03HX012 (ip), vehicle: saline with Tween-80
  T/C: 101 % of control
dose: 33.3 mg/kg/injection, schedule: Q03HX012 (ip), vehicle: saline with Tween-80
  T/C: 93 % of control
dose: 66.6 mg/kg/injection, schedule: Q03HX012 (ip), vehicle: saline with Tween-80
  T/C: 96 % of control
dose: 133.3 mg/kg/injection, schedule: Q03HX012 (ip), vehicle: saline with Tween-80
  T/C: 100 % of control

## Cc1cc(O)c2c(c1O)C(=O)C13C(=C2O)C(=O)C2C(O)C1C1C(O)C3C(=O)C3=C(O)c4c(O)cc(C)c(O)c4C(=O)C321 (stereo unspecified)
dose: 1.56 mg/kg/injection, schedule: Q04DX004 (ip), vehicle: saline with Tween-80
  T/C: 118 % of control
dose: 3.12 mg/kg/injection, schedule: Q04DX004 (ip), vehicle: saline with Tween-80
  T/C: 118 % of control
[6]
  T/C: 118 % of control
[7]
  T/C: 124 % of control

## O=C1C2C3C=CC(C2C(=O)N1CO)C1C2C(=O)N(CO)C(=O)C2C31 (stereo unspecified)
dose: 12.5 mg/kg/injection, schedule: Q04DX004 (ip), vehicle: water
  T/C: 103 % of control
dose: 25.0 mg/kg/injection, schedule: Q04DX004 (ip), vehicle: water
  T/C: 103 % of control
dose: 50.0 mg/kg/injection, schedule: Q04DX004 (ip), vehicle: water
  T/C: 98 % of control

## CN(C)CCCN=c1c2ccccc2n(C)c2[nH]c(=O)n(C)c(=O)c12
dose: 7.5 mg/kg/injection, schedule: Q04DX004 (ip), vehicle: saline
  T/C: 101 % of control
dose: 15.0 mg/kg/injection, schedule: Q04DX004 (ip), vehicle: saline
  T/C: 99 % of control
dose: 30.0 mg/kg/injection, schedule: Q04DX004 (ip), vehicle: saline
  T/C: 102 % of control

## OCCN1CCN(CC/C=C2/c3ccccc3Sc3ccc(C(F)(F)F)cc32)CC1
dose: 6.25 mg/kg/injection, schedule: Q04DX004 (ip), vehicle: saline
  T/C: 108 % of control
[8]
  T/C: 100 % of control
[9]
  T/C: 108 % of control
[10]
  T/C: 112 % of control

## COc1cc(C2=NCCc3cc4c(cc32)OCO4)cc(OC)c1OC
[8]
  T/C: 106 % of control
[9]
  T/C: 106 % of control
[10]
  T/C: 106 % of control
dose: 100.0 mg/kg/injection, schedule: Q04DX004 (ip), vehicle: saline
  T/C: 110 % of control

## O=Cc1ccc(O)c(O)c1
[4]
  T/C: 100 % of control
[1]
  T/C: 96 % of control
[2]
  T/C: 104 % of control
[3]
  T/C: 104 % of control

## C1CCC(NC2CCCCC2)CC1
[11]
  T/C: 103 % of control
[12]
  T/C: 103 % of control
dose: 300.0 mg/kg/injection, schedule: Q04DX004 (ip), vehicle: saline
  T/C: 100 % of control

## Clc1cccc(Cl)c1C(Nc1nncs1)Nc1nncs1
[4]
  T/C: 112 % of control and 122 % of control
[1]
  T/C: 123 % of control
[3]
  T/C: 164 % of control
dose: 800.0 mg/kg/injection, schedule: Q04DX004 (ip), vehicle: saline with Tween-80
  T/C: 157 % of control and 195 % of control

## CCN(CC)CCOC(=O)c1cc2cc3cc(C(=O)OCCN(CC)CC)c(=O)oc3c(C)c2oc1=O
dose: 37.5 mg/kg/injection, schedule: Q04DX004 (ip), vehicle: saline
  T/C: 100 % of control
[11]
  T/C: 92 % of control
[12]
  T/C: 93 % of control

## CO[C@@]12[C@@H]3N[C@@H]3CN1C1=C(C(=O)C(N3CCCC3)=C(C)C1=O)[C@@H]2COC(N)=O
[6]
  T/C: 269 % of control
[7]
  T/C: 183 % of control

## O=C1C(=O)N(c2ccccc2Cl)C(=O)N1Cc1ccccc1
dose: 43.75 mg/kg/injection, schedule: Q04DX004 (ip), vehicle: Klucel (hydroxypropylcellulose) (HPC)
  T/C: 102 % of control
dose: 87.5 mg/kg/injection, schedule: Q04DX004 (ip), vehicle: Klucel (hydroxypropylcellulose) (HPC)
  T/C: 98 % of control
dose: 175.0 mg/kg/injection, schedule: Q04DX004 (ip), vehicle: Klucel (hydroxypropylcellulose) (HPC)
  T/C: 109 % of control
dose: 350.0 mg/kg/injection, schedule: Q04DX004 (ip), vehicle: Klucel (hydroxypropylcellulose) (HPC)
  T/C: 94 % of control
dose: 700.0 mg/kg/injection, schedule: Q04DX004 (ip), vehicle: Klucel (hydroxypropylcellulose) (HPC)
  T/C: 93 % of control

## NCCCN=c1ccc2c3c1c(O)c1c(O)ccc(=O)c1c3[nH]n2CCNCCO
dose: 8.0 mg/kg/injection, schedule: Q04DX004 (ip), vehicle: water
  T/C: 171 % of control
dose: 16.0 mg/kg/injection, schedule: Q04DX004 (ip), vehicle: water
  T/C: 186 % of control
